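1) Cells in 96-well plates. 2) Compound, 48 h, 5 concentrations. 3) Linear interpolation between surrounding doses. 4) Unreached endpoint = highest concentration. GI50 is the concentration that inhibits growth by half. TGI: concentration producing complete growth inhibition.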
What was measured:
Experiment in all cases: NCI tumour cell line growth inhibition, 48 h
786-0 renal = system: 786-0 renal
A498 renal = system: A498 renal
BT-549 breast = system: BT-549 breast
CAKI-1 renal = system: CAKI-1 renal
DU-145 prostate = system: DU-145 prostate
HL-60(TB) leukemia = system: HL-60(TB) leukemia
HS 578T breast = system: HS 578T breast
MDA-MB-231 breast = system: MDA-MB-231 breast
NCI-H226 lung = system: NCI-H226 lung
NCI/ADR-RES ovarian = system: NCI/ADR-RES ovarian
OVCAR-5 ovarian = system: OVCAR-5 ovarian
RXF 393 renal = system: RXF 393 renal
SF-295 CNS = system: SF-295 CNS
SF-539 CNS = system: SF-539 CNS
UO-31 renal = system: UO-31 renal
A549 NSCLC = system: A549 NSCLC
ACHN renal = system: ACHN renal
CCRF-CEM leukemia = system: CCRF-CEM leukemia
COLO 205 colon = system: COLO 205 colon
EKVX NSCLC = system: EKVX NSCLC
HCC-2998 colon = system: HCC-2998 colon
HCT-116 colon = system: HCT-116 colon
HCT-15 colon = system: HCT-15 colon
HOP-62 NSCLC = system: HOP-62 NSCLC
HOP-92 NSCLC = system: HOP-92 NSCLC
HT29 colon = system: HT29 colon
IGROV1 ovarian = system: IGROV1 ovarian
K-562 leukemia = system: K-562 leukemia
KM12 colon = system: KM12 colon
LOX IMVI melanoma = system: LOX IMVI melanoma
M14 melanoma = system: M14 melanoma
MALME-3M melanoma = system: MALME-3M melanoma
MCF7 breast = system: MCF7 breast
MDA-MB-435 = system: MDA-MB-435
MOLT-4 leukemia = system: MOLT-4 leukemia
NCI-H23 lung = system: NCI-H23 lung
NCI-H460 lung = system: NCI-H460 lung
NCI-H522 lung = system: NCI-H522 lung
OVCAR-4 ovarian = system: OVCAR-4 ovarian
OVCAR-8 ovarian = system: OVCAR-8 ovarian
PC-3 prostate = system: PC-3 prostate
RPMI-8226 leukemia = system: RPMI-8226 leukemia
SK-MEL-2 melanoma = system: SK-MEL-2 melanoma
SK-MEL-28 melanoma = system: SK-MEL-28 melanoma
SK-MEL-5 melanoma = system: SK-MEL-5 melanoma
SN12C renal = system: SN12C renal
SNB-19 CNS = system: SNB-19 CNS
SNB-75 CNS = system: SNB-75 CNS
SR leukemia = system: SR leukemia
SW-620 colon = system: SW-620 colon
TK-10 renal = system: TK-10 renal
U251 CNS = system: U251 CNS
UACC-257 melanoma = system: UACC-257 melanoma
OVCAR-3 ovarian = system: OVCAR-3 ovarian
SF-268 CNS = system: SF-268 CNS
SK-OV-3 ovarian = system: SK-OV-3 ovarian
T-47D breast = system: T-47D breast
UACC-62 melanoma = system: UACC-62 melanoma

CN(C)c1ccc(-c2ccc(-c3ccc(C(=N)N)cc3)s2)cc1
GI50 (786-0 renal): 2.21 µM
TGI (786-0 renal): 5.06 µM
GI50 (A498 renal): 0.0155 µM
TGI (A498 renal): 0.0866 µM
GI50 (BT-549 breast): 21 µM
TGI (BT-549 breast): 78.3 µM
GI50 (CAKI-1 renal): 1.79 µM
TGI (CAKI-1 renal): 3.77 µM
GI50 (DU-145 prostate): 1.8 µM
TGI (DU-145 prostate): 3.37 µM
GI50 (HL-60(TB) leukemia): 2.03 µM
TGI (HL-60(TB) leukemia): 4.57 µM
GI50 (HS 578T breast): 2.14 µM
TGI (HS 578T breast): 5.19 µM
GI50 (MDA-MB-231 breast): 1.81 µM
TGI (MDA-MB-231 breast): 3.57 µM
GI50 (NCI-H226 lung): 32.6 µM
TGI (NCI-H226 lung): > 100 µM
GI50 (NCI/ADR-RES ovarian): 2.35 µM
TGI (NCI/ADR-RES ovarian): 5.45 µM
GI50 (OVCAR-5 ovarian): 1.73 µM
TGI (OVCAR-5 ovarian): 3.38 µM
GI50 (RXF 393 renal): 1.81 µM
TGI (RXF 393 renal): 3.99 µM
GI50 (SF-295 CNS): 1.9 µM
TGI (SF-295 CNS): 3.61 µM
GI50 (SF-539 CNS): 1.76 µM
TGI (SF-539 CNS): 3.38 µM
GI50 (UO-31 renal): 1.64 µM
TGI (UO-31 renal): 3.22 µM

O=c1cc(N2CCCC2)[nH]c(=O)n1-c1ccccc1
TGI (786-0 renal): > 100 µM
TGI (A549 NSCLC): > 100 µM
TGI (ACHN renal): > 100 µM
TGI (BT-549 breast): > 100 µM
TGI (CAKI-1 renal): > 100 µM
TGI (CCRF-CEM leukemia): > 100 µM
TGI (COLO 205 colon): > 100 µM
TGI (DU-145 prostate): > 100 µM
TGI (EKVX NSCLC): > 100 µM
TGI (HCC-2998 colon): > 100 µM
TGI (HCT-116 colon): > 100 µM
TGI (HCT-15 colon): > 100 µM
TGI (HL-60(TB) leukemia): > 100 µM
TGI (HOP-62 NSCLC): > 100 µM
TGI (HOP-92 NSCLC): > 100 µM
TGI (HT29 colon): > 100 µM
TGI (IGROV1 ovarian): > 100 µM
TGI (K-562 leukemia): > 100 µM
TGI (KM12 colon): > 100 µM
TGI (LOX IMVI melanoma): > 100 µM
TGI (M14 melanoma): > 100 µM
TGI (MALME-3M melanoma): > 100 µM
TGI (MCF7 breast): > 100 µM
TGI (MDA-MB-231 breast): > 100 µM
TGI (MDA-MB-435): > 100 µM
TGI (MOLT-4 leukemia): > 100 µM
TGI (NCI-H226 lung): > 100 µM
TGI (NCI-H23 lung): > 100 µM
TGI (NCI-H460 lung): > 100 µM
TGI (NCI-H522 lung): > 100 µM
TGI (NCI/ADR-RES ovarian): > 100 µM
TGI (OVCAR-4 ovarian): > 100 µM
TGI (OVCAR-5 ovarian): > 100 µM
TGI (OVCAR-8 ovarian): > 100 µM
TGI (PC-3 prostate): > 100 µM
TGI (RPMI-8226 leukemia): > 100 µM
TGI (SF-295 CNS): > 100 µM
TGI (SF-539 CNS): > 100 µM
TGI (SK-MEL-2 melanoma): > 100 µM
TGI (SK-MEL-28 melanoma): > 100 µM
TGI (SK-MEL-5 melanoma): > 100 µM
TGI (SN12C renal): > 100 µM
TGI (SNB-19 CNS): > 100 µM
TGI (SNB-75 CNS): > 100 µM
TGI (SR leukemia): > 100 µM
TGI (SW-620 colon): > 100 µM
TGI (TK-10 renal): > 100 µM
TGI (U251 CNS): > 100 µM
TGI (UACC-257 melanoma): > 100 µM

COc1cc2c(c(O)c1OC)C(=O)C(Cc1ccc(O)cc1)CO2 (centres undefined)
TGI (786-0 renal): > 100 µM
TGI (A549 NSCLC): 60.7 µM
TGI (ACHN renal): > 100 µM
TGI (CAKI-1 renal): 75.9 µM
TGI (CCRF-CEM leukemia): > 100 µM
TGI (COLO 205 colon): > 100 µM
TGI (DU-145 prostate): > 100 µM
TGI (HCT-116 colon): > 100 µM
TGI (HCT-15 colon): > 100 µM
TGI (HL-60(TB) leukemia): 98.3 µM
TGI (HOP-62 NSCLC): > 100 µM
TGI (HOP-92 NSCLC): > 100 µM
TGI (HS 578T breast): 36.5 µM
TGI (HT29 colon): > 100 µM
TGI (IGROV1 ovarian): > 100 µM
TGI (K-562 leukemia): > 100 µM
TGI (KM12 colon): > 100 µM
TGI (LOX IMVI melanoma): > 100 µM
TGI (M14 melanoma): 84 µM
TGI (MALME-3M melanoma): > 100 µM
TGI (MCF7 breast): 8.65 µM
TGI (MDA-MB-231 breast): 77.4 µM
TGI (MDA-MB-435): 7.24 µM
TGI (MOLT-4 leukemia): > 100 µM
TGI (NCI-H226 lung): > 100 µM
TGI (NCI-H23 lung): > 100 µM
TGI (NCI-H460 lung): > 100 µM
TGI (NCI-H522 lung): 15.3 µM
TGI (NCI/ADR-RES ovarian): 39.2 µM
TGI (OVCAR-3 ovarian): 26.4 µM
TGI (OVCAR-4 ovarian): > 100 µM
TGI (OVCAR-5 ovarian): > 100 µM
TGI (OVCAR-8 ovarian): > 100 µM
TGI (PC-3 prostate): > 100 µM
TGI (RPMI-8226 leukemia): 60.3 µM
TGI (RXF 393 renal): 54 µM
TGI (SF-268 CNS): > 100 µM
TGI (SF-295 CNS): 29.2 µM
TGI (SF-539 CNS): 41.7 µM
TGI (SK-MEL-2 melanoma): > 100 µM
TGI (SK-MEL-28 melanoma): > 100 µM
TGI (SK-MEL-5 melanoma): 49 µM
TGI (SK-OV-3 ovarian): 61.3 µM
TGI (SN12C renal): > 100 µM
TGI (SNB-19 CNS): 74.1 µM
TGI (SNB-75 CNS): 81.4 µM
TGI (SR leukemia): > 100 µM
TGI (SW-620 colon): > 100 µM
TGI (T-47D breast): 69.6 µM
TGI (TK-10 renal): > 100 µM
TGI (U251 CNS): > 100 µM
TGI (UACC-257 melanoma): > 100 µM
TGI (UACC-62 melanoma): > 100 µM
TGI (UO-31 renal): > 100 µM

CCOC(=O)c1nc2cc(C(F)(F)F)ccc2nc1Nc1ccc(C(=O)NC(C(=O)OCC)C(=O)OCC)cc1
TGI (786-0 renal): 27.6 µM
TGI (A498 renal): 50.3 µM
TGI (ACHN renal): 63.1 µM
TGI (BT-549 breast): 51.6 µM
TGI (CAKI-1 renal): 37 µM
TGI (CCRF-CEM leukemia): > 100 µM
TGI (COLO 205 colon): > 100 µM
TGI (DU-145 prostate): > 100 µM
TGI (EKVX NSCLC): 66.2 µM
TGI (HCC-2998 colon): > 100 µM
TGI (HCT-116 colon): 37.4 µM
TGI (HCT-15 colon): > 100 µM
TGI (HL-60(TB) leukemia): > 100 µM
TGI (HOP-62 NSCLC): 41 µM
TGI (HOP-92 NSCLC): 58.8 µM
TGI (HS 578T breast): 37.5 µM
TGI (HT29 colon): > 100 µM
TGI (IGROV1 ovarian): 54.2 µM
TGI (K-562 leukemia): > 100 µM
TGI (KM12 colon): > 100 µM
TGI (LOX IMVI melanoma): > 100 µM
TGI (MALME-3M melanoma): 40.3 µM
TGI (MCF7 breast): 57.2 µM
TGI (MDA-MB-231 breast): 50.4 µM
TGI (MDA-MB-435): > 100 µM
TGI (MOLT-4 leukemia): > 100 µM
TGI (NCI-H226 lung): 34.8 µM
TGI (NCI-H23 lung): > 100 µM
TGI (NCI-H460 lung): > 100 µM
TGI (NCI-H522 lung): 40.3 µM
TGI (OVCAR-3 ovarian): > 100 µM
TGI (OVCAR-4 ovarian): 33.1 µM
TGI (OVCAR-5 ovarian): > 100 µM
TGI (PC-3 prostate): > 100 µM
TGI (RPMI-8226 leukemia): 65.8 µM
TGI (RXF 393 renal): 28.8 µM
TGI (SF-268 CNS): 53.6 µM
TGI (SF-295 CNS): 30.8 µM
TGI (SK-MEL-2 melanoma): > 100 µM
TGI (SK-MEL-28 melanoma): 69.2 µM
TGI (SK-MEL-5 melanoma): 54.2 µM
TGI (SK-OV-3 ovarian): 42.1 µM
TGI (SN12C renal): 47.2 µM
TGI (SNB-19 CNS): 55.3 µM
TGI (SR leukemia): > 100 µM
TGI (SW-620 colon): > 100 µM
TGI (TK-10 renal): 97.4 µM
TGI (U251 CNS): 32 µM
TGI (UACC-257 melanoma): 51.9 µM
TGI (UACC-62 melanoma): 27.6 µM
TGI (UO-31 renal): 91.9 µM
